Reference: patent publication EP2067861A1, “Animals of the rattus genus wherein msh6 expression is functionally decreased and methods for the generation of specific mutants therefrom” (Koninklijke Nederlandse Akademie van Wetenschappen, priority 2007, dated 2009)
Where “and” joins values, the source holds several entries; their conditions need not be identical. Equal values may be shown once.

Legend:
[1] = tested on: wild-type rats; conditions: cited from earlier work
[2] = tested on: A:T base pairs; conditions: Justice et al. (1999); cited from earlier work
[3] = tested on: Male MSH6 knockout rats (Msh6^1Hubr); experiment: ENU-induced germ line mutation discovery by resequencing 768 amplicons in F1 progeny; type: in vivo, rat
Procedure: All experiments were approved by the Animal Care Committee of the Royal Dutch Academy of Science according to the Dutch legal ethical guidelines. Experiments were designed to minimize the number of required animals and their suffering. Male MSH6 knockout rats (Msh6^1Hubr) of 12 weeks of age were given three weekly intraperitoneal injections of 25, 30 and 35 mg/kg bodyweight ENU. Preparation of ENU (Isopac; Sigma) was done as decribed (for detailed description, see (Smits et al. (2006) Pharmacogenet Genomics 16, 159-69) After the treatment the injected males were monitored for fertility by breeding with one or two females. Pups from these early matings were counted, but not analyzed. Ten weeks after the last injection, fertile males of the highest-dosed fertile group were kept on a weekly breeding scheme with two females to produce F1 progeny for mutational analysis. Animals were housed under standard conditions in groups of two to three per cage per gender under controlled experimental conditions (12-h light/dark cycle, 21±1°C, 60% relative humidity, food and water ad libitum).
At two weeks of age F1 progeny were uniquely tagged by fetching ear clips. Ear clips were lysed for at least 2 hours at 55°C and 1400 rpm in a Thermomixer comfort (Eppendorf) in 400 µl lysisbuffer (100 mM Tris (pH 8.5), 200 mM NaCl, 0.2% SDS, 5 mM EDTA and 100 µg/ml of freshly added Proteinase K) followed by phenol/chloroform (1:1, vol/vol) extraction. The DNA was precipitated by adding 300 µl isopropanol, mixing and centrifuging for 20 min, at 21,000 g at 4°C. The supernatant was discarded and pellets were washed with 70% ethanol and dissolved in 500 µl MQ.
768 pre-selected amplicons were amplified using a nested PCR setup. The first PCR was carried out using a touchdown thermocycling program (94°C for 60 sec; 15 cycles of 92°C for 30 sec, 65°C for 30 sec with a decrement of 0.6°C per cycle, 72°C for 60 sec; followed by 30 cycles of 92°C for 30 sec, 58°C for 30 sec and 72°C for 60 sec; 72°C for 180 sec; GeneAmp9700, Applied Biosystems). The PCR reaction contained ±100 ng DNA, 0.2 µM of each forward primer and 0.2 µM of each reverse primer, 400 µM of each dNTP, 25 mM tricine, 7.0% glycerol (w/v), 1.6% dimethyl sulfoxide (DMSO) (w/v), 2 mM MgCl2, 85 mM ammonium acetate pH 8.7 and 0.2 U Taq Polymerase in a total volume of 5 µl. After thermocycling, the PCR1 reactions were diluted with 20 µl H2O and 1 µl was used as template for the second round of PCR. The second PCR was done using a standard thermocycling program (94°C for 60 sec; 35 cycles of 92°C for 20 sec, 58°C for 30 sec and 72°C for 60 sec; 72°C for 180 sec; GeneAmp9700, Applied Biosystems). PCR2 mixes contained 1 µl diluted PCR1 template, 0.1 µM forward primer, 0.1 µM reverse primer, 100 µM of each dNTP, 25 mM tricine, 7.0% glycerol (w/v), 1.6% DMSO (w/v), 2 mM MgCl2, 85 mM ammonium acetate pH 8.7 and 0.1 U Taq Polymerase in a total volume of 5 µl. Several samples of each plate were tested on a 1% agarose gel containing ethidium bromide for the presence of the proper PCR fragment. PCR2 products were diluted with 20 µl H2O and 1 µl was directly used as a template for the sequencing reactions. Sequencing reactions contained 0.1 µl BigDye (v3.1; Applied Biosystems), 1.9 µl BigDye Dilution Buffer (Applied Biosystems) and 0.4 µM of the forward primers used for the PCR2 reaction in a total volume of 5 µl. The thermocycling program that was recommended by the manufacturer was used for the sequence reactions (40 cycles of 94°C for 10 sec, 50°C for 5 sec and 60°C for 120 sec). Sequencing products were purified by ethanol precipitation in the presence of 40 mM sodium-acetate and analyzed on a 96-capillary 3730XL DNA analyzer (Applied Biosystems), using the standard RapidSeq protocol on 36 cm array. Sequences were analyzed for the presence of heterozygous mutations using PolyPhred (Nickerson et al. (1997) Nucleic Acids Res. 25, 2745-51) and in-house developed software. […]

[4] = 3 x 30 mg/kg bodyweight ENU, animals born 14 - 16 weeks after the ENU injection
[5] = 94 coding mutations, all MSH6^-/- dose groups
[6] = ENU mutation spectrum, MSH6 deficient compared to proficient background
[7] = MSH6^-/- 3 x 25 mg/kg ENU, 16 pups, 3.57 x 10^6 bases screened
[8] = MSH6^-/- 3 x 30 mg/kg ENU, 291 pups, 69.66 x 10^6 bases screened
[9] = MSH6^-/- 3 x 35 mg/kg ENU, 3 pups, 0.72 x 106 bases screened
[10] = MSH6^-/- Total of the three dose groups

In the case of `CCN(N=O)C(N)=O` [ENU, N-ethyl-N-nitrosourea], the rats fertile ([1]; 35 mg/kg ENU, earlier studies (Smits and Cuppen 2006)) is given as 10/10, the “# Fertile males” value ([1]; Control 3 x 40 mg of ENU per kg bodyweight, 10 males injected) is given as 6/10 and 6 and the “A:T->C:G transversions” value [2] is given as 5%. The “A:T->G:C transitions” value [2] was 38%, the “A:T->T:A transversions” value [2] was 44% and the “G:C ->A:T transitions” value [2] was 8%. The “G:C->C:G transversions” value [2] was 3%, the “G:C->T:A transversions” value [2] was 2% and the missense mutations [2] was “about 64%”. For the same compound, the nonsense mutations [2] was roughly 10%, the splicing errors [2] was roughly 26% and the “Mutation Frequencies” value ([3]; 3 x 30 mg/kg bodyweight ENU, F1 born 14 - 16 weeks after last injection) was 1.88 x 10^-6. The “# Mutations” value ([3]; 3 x 30 mg/kg bodyweight ENU, F1 born 14 - 16 weeks after last injection, 59 pups, 14.92 x 10^6 bases screened) was 28, the “Mutation Frequencies” value ([3]; 3 x 30 mg/kg bodyweight ENU, F1 born 17 - 19 weeks after last injection) was 1.65 x 10^-6 and the “# Mutations” value ([3]; 3 x 30 mg/kg bodyweight ENU, F1 born 17 - 19 weeks after last injection, 62 pups, 13.30 x 106 bases screened) was 22. For the same compound, the “Mutation Frequencies” value ([3]; 3 x 30 mg/kg bodyweight ENU, F1 born 20 - 22 weeks after last injection) was 1.24 x 10^-6, the “# Mutations” value ([3]; 3 x 30 mg/kg bodyweight ENU, F1 born 20 - 22 weeks after last injection, 67 pups, 15.34 x 10^6 bases screened) was 19 and the “Mutation Frequencies” value ([3]; 3 x 30 mg/kg bodyweight ENU, F1 born 23 - 25 weeks after last injection) was 9.92 x 10^-7. For the same compound, the “# Mutations” value ([3]; 3 x 30 mg/kg bodyweight ENU, F1 born 23 - 25 weeks after last injection, 64 pups, 16.14 x 10^6 bases screened) was 16, the mutation frequency ([3]; 3 x 30 mg/kg bodyweight ENU, F1 born 23 weeks after the last injection or later) was “approximately 1.0 x 10^-6 per base pair” and the “Mutation Frequencies” value ([3]; 3 x 30 mg/kg bodyweight ENU, F1 born 26 - 29 weeks after last injection) was 1.10 x 10^-6. The “# Mutations” value ([3]; 3 x 30 mg/kg bodyweight ENU, F1 born 26 - 29 weeks after last injection, 39 pups, 9.97 x 10^6 bases screened) was 11, the mutation frequency [3, 4] was 1.88 x 10^-6 per base pair and the “mutation rate (1 mutation every ... base pairs)” value [3, 4] was 5.3 x 10^5 base pairs. The mutation frequency ([3]; 3 x 30 mg/kg bodyweight ENU, animals born 17 - 19 weeks after the last ENU injection) was 1.65 x 10^-6 per base pair, the mutation frequency ([3]; 3 x 30 mg/kg bodyweight ENU, animals born 20 - 22 weeks after the last ENU injection) was 1.24 x 10^-6 per base pair and the “missense mutations, share of coding mutations” value [3, 5] was roughly 74%. For the same compound, the “nonsense mutations, share of coding mutations” value [3, 5] was roughly 4%, the “silent mutations, share of coding mutations” value [3, 5] was roughly 21% and the “percentage of A:T to G:C transitions” value [3, 6] was “significantly decreased”. The “percentage of G:C to A:T transitions” value [3, 6] was “significantly increased”, the percentages of transversions [3, 6] was “No significant change” and the “# Mutations - non-coding” value ([3]; MSH6^-/- 3 x 25 mg/kg ENU) was 0. For the same compound, the “# Mutations - silent” value ([3]; MSH6^-/- 3 x 25 mg/kg ENU) was 1, the “# Mutations - missense” value [3, 7] was 4 and the “# Mutations - nonsense” value [3, 7] was 0. For the same compound, the “# Mutations - total” value [3, 7] was 5, the “Mutation Frequencies” value ([3]; MSH6^-/- 3 x 25 mg/kg ENU, F1 progeny) was 1.40 x 10^-6 and the “# Mutations - non-coding” value ([3]; MSH6^-/- 3 x 30 mg/kg ENU) was 8. For the same compound, the “# Mutations - silent” value ([3]; MSH6^-/- 3 x 30 mg/kg ENU) was 19, the “# Mutations - missense” value [3, 8] was 65 and the “# Mutations - nonsense” value [3, 8] was 4. For the same compound, the “# Mutations - total” value [3, 8] was 96, the “Mutation Frequencies” value ([3]; MSH6^-/- 3 x 30 mg/kg ENU, F1 progeny) was 1.38 x 10^-6 and the “# Mutations - non-coding” value ([3]; MSH6^-/- 3 x 35 mg/kg ENU) was 0. For the same compound, the “# Mutations - silent” value ([3]; MSH6^-/- 3 x 35 mg/kg ENU) was 0, the “# Mutations - missense” value [3, 9] was 1 and the “# Mutations - nonsense” value [3, 9] was 0. The “Mutation Frequencies” value ([3]; MSH6^-/- 3 x 35 mg/kg ENU, F1 progeny) was 1.38 x 10^-6, the “# Mutations - missense” value [3, 10] was 70 and the “# Mutations - non-coding” value [3, 10] was 8. For the same compound, the “# Mutations - silent” value [3, 10] was 20, the “# Mutations - total” value ([3]; MSH6^-/- Total of the three dose groups, 310 pups, 73,95 x 10^6 bases screened) was 102 and the “increase of mutation rate compared to control animals” value ([3]; MSH6 deficient 3 x 30 mg/kg ENU versus control 3 x 40 mg/kg) was 1.7 x. The “mutation rate (1 mutation every ... base pairs)” value ([3]; MSH6 deficient, 3 x 30 mg/kg bodyweight ENU, 291 F1 progeny, almost 70 Mb) was 7.26 x 10^5 base pairs and the “mutations in coding regions” value ([3]; of the 102 mutations found, all MSH6^-/- dose groups) was 94.
